Assay results as given in the NIST ThermoML archive (doi:10.1016/j.jct.2007.02.009).
Numbers after ± are expanded uncertainties.

Conditions: Crystal; Adiabatic calorimetry

Triple point temperature: 212.86 ± 0.11 K
Compound: CN(C)C=O [dimethylformamide]
